Results as given in publication PMC12218921, “An adaptive peptide-binding site in ubiquitin receptor hRpn13 revealed by structural studies” (Nature Communications, 2025).

Target: T1, hRpn13_ΔMTT (Homo sapiens, UniProt Q16186)
T1 construct: recombinant plasmid of hRpn13 Pru (1–150) cloned into the pRSET vector; GST (N, cleaved yes); residual Gly-Ser (^cG-^dS) left after cleavage; made in house; host or cells: Escherichia coli BL21 (DE3); pGEX-4T-1 plasmid synthesized by GenScript (Addgene 237412)
Assay: 1H-15N HSQC NMR titration / chemical shift perturbation (CSP), 0.1 mM 15N-labeled hRpn13_ΔMTT with unlabeled peptide
Type: binding
Settings: 20-fold molar excess peptide
Protocol: The similar spectral effects by adding ENT or ENT_M1S is readily apparent by quantifying and plotting the shifting across the Pru amino acid sequence (Supplementary Fig. 10b, c).
All ^1H-^15N HSQC experiments were acquired on samples dissolved in NMR buffer (20 mM sodium phosphate, pH 6.5, 50 mM NaCl, 1 mM TCEP, 10% D2O) unless specified, in which case 2 mM DTT replaced TCEP. The samples were purified in DTT-containing buffer and then exchanged into NMR buffer by using Zeba Protein Desalting columns (Thermo Fisher Scientific). The pH was measured and adjusted to 6.5. All NMR experiments were performed at 25 °C on a Bruker Advance 600 MHz spectrometer equipped with a cryogenically cooled probe. The data were processed by NMRpipe[46] (version 11.5) and spectra visualized and analyzed with NMR-FAM-SPARKY[47] (version 3.190) by using previous chemical shift assignments[12],[23] and NMRbox[48]. The amide nitrogen and hydrogen chemical shift perturbations (CSP) were mapped for each amino acid according to Eq. 1.1 CSP=0.2ΔδN2+ΔδH2
ΔδH, change in amide proton value (in parts per million); ΔδN, change in amide nitrogen value (in parts per million).
Supplementary Figure 9: 2D NMR experiments indicate ENT binding to hRpn13 Pru. a) ^1H-^15N HSQC spectrum of 0.1 mM ^15N-labeled hRpn13 (1-150, black) or hRpn13_ΔMTT (green). Select residues are labeled with amino acids in the Pru helix, proteasome binding region, and termini in blue, purple, and orange, respectively. Arrows indicate direction of shifting. b, c) ^1H-^15N HSQC spectra of 0.1 mM of ^15N-labeled hRpn13_ΔMTT alone (black) or with ENT present at equimolar (red), 2-fold (orange), 5-fold (yellow), 10-fold (green), 15-fold (blue), or 20-fold (purple) molar excess. […] All spectra were acquired at 600 MHz and 25°C in 20 mM sodium phosphate, pH 6.5, 100 mM NaCl, 1 mM TCEP, 10% D2O. ppm, part per million.

T1 sequence (Q16186 4-150, stated change not applied): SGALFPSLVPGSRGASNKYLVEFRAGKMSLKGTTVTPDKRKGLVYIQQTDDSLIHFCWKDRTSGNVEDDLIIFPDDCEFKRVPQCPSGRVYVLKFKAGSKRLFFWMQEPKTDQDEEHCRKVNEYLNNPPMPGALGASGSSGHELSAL

GPGSSTT [ENT_M1S, ENT M1 replaced with serine]
CSP A6: 0.001673
CSP A28: 0.004472
CSP A100: 0.001095
CSP A136: 0.001
CSP A139: 0.001342
CSP A149: 0.001342
CSP C60: 0.004494
CSP C80: 0.0004472
CSP C88: 0.005727
CSP C121: 0.01167
CSP D41: 0.0008944
CSP D53: 0.002049
CSP D54: 0.003347
CSP D63: 0.004919
CSP D71: 0.004147
CSP D72: 0.004583
CSP D78: 0.00502
CSP D79: 0.004472
CSP D115: 0.005385
CSP D117: 0.02256
CSP E25: 0.004472
CSP E70: 0.002683
CSP E81: 0.003715
CSP E111: 0.01001
CSP E118: 0.03156
CSP E119: 0.0177
CSP E146: 0.005177
CSP F8: 0.0004472
CSP F26: 0.01613
CSP F59: 0.004583
CSP F76: 0.008012
CSP F82: 0.002683
CSP F98: 0.005459
CSP F106: 0.003715
CSP F107: 0.002049
CSP G5: 0
CSP G17: 0.002236
CSP G29: 0.0008944
CSP G45: 0.003715
CSP G67: 0.005899
CSP G91: 0.001673
CSP G101: 0.001789
CSP G135: 0.002049
CSP G138: 0.002049
CSP G141: 0.001789
CSP G144: 0.0008944
CSP H58: 0.00743
CSP H120: 0.04026
CSP H145: 0.04954
CSP I49: 0.003286
CSP I57: 0.003286
CSP I75: 0
CSP K21: 0.001095
CSP K30: 0.007668
CSP K34: 0.002049
CSP K42: 0.002191
CSP K62: 0.001789
CSP K83: 0.00634
CSP K97: 0.001
CSP K99: 0.002049
CSP K103: 0.001673
CSP K113: 0.004472
CSP K123: 0.00743
CSP L7: 0.001
CSP L11: 0.0008944
CSP L23: 0.001095
CSP L33: 0.002408
CSP L46: 0.002049
CSP L56: 0.004099
CSP L73: 0.002049
CSP L96: 0.0004472
CSP L105: 0.001095
CSP L128: 0.003131
CSP L137: 0.001673
CSP L147: 0.004494
CSP L150: 0.001673
CSP M31: 0
CSP M109: 0.003286
CSP M133: 0.002
CSP N20: 0
CSP N68: 0.001789
CSP N125: 0.003347
CSP N129: 0.003
CSP N130: 0.002683
CSP Q50: 0.001095
CSP Q51: 0.001
CSP Q87: 0.008295
CSP R16: 0
CSP R27: 0.008112
CSP R43: 0.0008944
CSP R64: 0.003
CSP R84: 0
CSP R92 backbone: 0.002449
CSP R92 sidechain: 0.01312
CSP R104: 0.004099
CSP R122: 0.006768
CSP S4: 0.003715
CSP S10: 0.001
CSP S15: 0.002236
CSP S19: 0.002049
CSP S32: 0.001095
CSP S55: 0.001342
CSP S66: 0.001
CSP S102: 0.001342
CSP S140: 0.001095
CSP S142: 0.001342
CSP S143: 0.002049
CSP S148: 0.0004472
CSP T36: 0.001342
CSP T37: 0.002191
CSP T39: 0.002683
CSP T52: 0.001095
CSP T65: 0.001342
CSP T114: 0.01524
CSP V12: 0.002049
CSP V24: 0
CSP V47: 0.002683
CSP V69: 0.003715
CSP V93: 0.006542
CSP V95: 0.003131
CSP V124: 0.007759
CSP W61: 0.009165
CSP W108: 0.004025
CSP Y22: 0.001095
CSP Y48: 0.002864
CSP Y94: 0.002449
CSP Y127: 0.004382
